Test results taken from ChEMBL document CHEMBL1909046, “DrugMatrix in vitro pharmacology data”.

Experiments:
[1] = molecular target: Tyrosine-protein kinase Fyn (Homo sapiens, UniProt P06241); assay: biochemical; type: cell-based, Insect cells; details: insect cells;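 note: enzymatic inhibition of Fyn kinase activity measured with Poly(Glu:Tyr) as the phosphorylation substrate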
[2] = molecular target: Delta-type opioid receptor (Homo sapiens, UniProt P41143); type: cell membranes, HEK293, Membrane; details: hek293
[3] = molecular target: C-C chemokine receptor type 2 (Homo sapiens, UniProt P41597); type: cell membranes, CHO-K1, Membrane; details: cho-k1
[4] = molecular target: T1, Cholecystokinin receptor type A (Homo sapiens, UniProt P32238); type: cell membranes, Membrane; details: 1321-n1
T1 sequence (P32238 whole entry): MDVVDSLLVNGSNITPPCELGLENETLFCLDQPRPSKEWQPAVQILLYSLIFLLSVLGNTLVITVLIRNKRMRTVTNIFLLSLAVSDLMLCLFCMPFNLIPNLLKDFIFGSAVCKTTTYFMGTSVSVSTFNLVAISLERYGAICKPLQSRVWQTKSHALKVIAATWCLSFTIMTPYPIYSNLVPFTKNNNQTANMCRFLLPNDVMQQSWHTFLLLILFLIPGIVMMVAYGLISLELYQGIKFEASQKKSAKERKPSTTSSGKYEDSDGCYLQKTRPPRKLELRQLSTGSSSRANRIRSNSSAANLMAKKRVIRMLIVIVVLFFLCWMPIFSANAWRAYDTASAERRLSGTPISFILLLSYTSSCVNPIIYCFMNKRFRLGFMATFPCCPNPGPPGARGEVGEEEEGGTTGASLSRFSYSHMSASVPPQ

[5] = molecular target: T2, Polyunsaturated fatty acid lipoxygenase ALOX15 (Oryctolagus cuniculus, UniProt P12530); assay: biochemical; type: tissue-based, Reticulocytes; details: reticulocytes;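 note: inhibition of 15-lipoxygenase enzyme activity measured with linoleic acid as the substrate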
T2 sequence (P12530 whole entry): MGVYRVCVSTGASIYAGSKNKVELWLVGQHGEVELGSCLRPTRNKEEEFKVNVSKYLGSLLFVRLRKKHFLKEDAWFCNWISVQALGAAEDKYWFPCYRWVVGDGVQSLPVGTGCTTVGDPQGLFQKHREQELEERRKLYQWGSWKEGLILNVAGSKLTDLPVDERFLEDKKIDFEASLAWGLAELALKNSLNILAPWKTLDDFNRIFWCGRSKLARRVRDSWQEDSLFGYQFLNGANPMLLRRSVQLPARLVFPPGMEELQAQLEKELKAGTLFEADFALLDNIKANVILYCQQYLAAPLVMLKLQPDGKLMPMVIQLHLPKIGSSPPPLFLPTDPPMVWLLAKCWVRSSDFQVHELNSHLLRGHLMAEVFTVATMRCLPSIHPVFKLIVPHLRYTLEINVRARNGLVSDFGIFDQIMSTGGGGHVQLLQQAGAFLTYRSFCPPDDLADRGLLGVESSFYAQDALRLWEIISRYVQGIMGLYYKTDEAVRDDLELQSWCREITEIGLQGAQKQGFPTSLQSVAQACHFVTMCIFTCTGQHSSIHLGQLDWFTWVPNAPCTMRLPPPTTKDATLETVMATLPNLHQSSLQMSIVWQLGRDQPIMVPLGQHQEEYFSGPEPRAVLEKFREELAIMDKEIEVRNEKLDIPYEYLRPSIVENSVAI

[6] = molecular target: T3, Cytochrome P450 1A2 (Homo sapiens, UniProt P05177); details: bti-tn-5b1-4
T3 sequence (P05177 whole entry): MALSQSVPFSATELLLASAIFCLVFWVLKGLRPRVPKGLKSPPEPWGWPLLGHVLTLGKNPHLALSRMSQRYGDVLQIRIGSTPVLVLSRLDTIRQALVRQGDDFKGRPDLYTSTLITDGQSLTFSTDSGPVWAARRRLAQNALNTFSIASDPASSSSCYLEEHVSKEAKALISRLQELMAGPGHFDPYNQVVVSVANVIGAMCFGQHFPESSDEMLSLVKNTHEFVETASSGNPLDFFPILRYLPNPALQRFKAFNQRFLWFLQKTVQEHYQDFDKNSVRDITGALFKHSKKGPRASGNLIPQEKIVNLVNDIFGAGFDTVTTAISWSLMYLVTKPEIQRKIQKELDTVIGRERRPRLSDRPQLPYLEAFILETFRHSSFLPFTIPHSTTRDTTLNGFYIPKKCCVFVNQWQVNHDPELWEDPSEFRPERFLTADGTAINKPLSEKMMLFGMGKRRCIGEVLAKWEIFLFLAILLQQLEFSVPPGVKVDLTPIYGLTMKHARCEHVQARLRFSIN

[7] = molecular target: T4, Neuropeptide Y receptor type 1 (Homo sapiens, UniProt P25929); type: cell membranes, Membrane; details: sk-n-mc
T4 sequence (P25929 whole entry): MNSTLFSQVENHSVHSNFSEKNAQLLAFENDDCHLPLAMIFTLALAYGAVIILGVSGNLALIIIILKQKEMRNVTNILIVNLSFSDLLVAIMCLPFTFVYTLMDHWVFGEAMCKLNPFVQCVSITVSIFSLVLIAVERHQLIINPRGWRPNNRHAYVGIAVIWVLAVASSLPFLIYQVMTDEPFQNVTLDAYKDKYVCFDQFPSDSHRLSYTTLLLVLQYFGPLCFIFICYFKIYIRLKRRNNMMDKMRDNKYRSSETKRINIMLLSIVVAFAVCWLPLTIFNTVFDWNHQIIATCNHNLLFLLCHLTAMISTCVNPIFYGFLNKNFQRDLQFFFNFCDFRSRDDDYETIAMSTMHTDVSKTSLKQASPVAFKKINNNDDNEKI

[8] = molecular target: Estrogen receptor beta (Homo sapiens, UniProt Q92731); details: sf9
Note: in other assays of this panel Not Active means under 50% inhibition at 10 µM.

Sequence of Delta-type opioid receptor (P41143 whole entry): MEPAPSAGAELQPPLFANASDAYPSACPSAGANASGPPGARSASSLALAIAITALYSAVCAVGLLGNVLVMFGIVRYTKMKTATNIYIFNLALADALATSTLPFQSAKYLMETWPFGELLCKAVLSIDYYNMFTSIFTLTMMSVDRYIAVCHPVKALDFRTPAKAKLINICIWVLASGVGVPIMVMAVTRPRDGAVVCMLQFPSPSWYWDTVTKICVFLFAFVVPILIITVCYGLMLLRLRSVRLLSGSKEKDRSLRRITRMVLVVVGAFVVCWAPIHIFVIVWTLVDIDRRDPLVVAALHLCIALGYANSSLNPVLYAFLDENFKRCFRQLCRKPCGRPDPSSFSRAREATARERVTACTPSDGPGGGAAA
Sequence of C-C chemokine receptor type 2 (P41597 whole entry): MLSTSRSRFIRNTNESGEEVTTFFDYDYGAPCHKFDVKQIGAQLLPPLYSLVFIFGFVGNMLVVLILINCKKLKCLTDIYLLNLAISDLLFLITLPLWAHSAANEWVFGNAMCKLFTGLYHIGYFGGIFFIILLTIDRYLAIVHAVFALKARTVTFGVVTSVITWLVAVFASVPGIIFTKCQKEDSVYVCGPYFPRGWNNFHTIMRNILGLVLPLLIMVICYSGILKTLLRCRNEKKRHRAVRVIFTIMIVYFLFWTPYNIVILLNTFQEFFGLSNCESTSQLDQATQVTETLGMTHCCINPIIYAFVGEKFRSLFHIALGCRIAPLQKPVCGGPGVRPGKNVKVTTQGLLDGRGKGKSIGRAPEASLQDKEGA
Sequence of Estrogen receptor beta (Q92731 whole entry): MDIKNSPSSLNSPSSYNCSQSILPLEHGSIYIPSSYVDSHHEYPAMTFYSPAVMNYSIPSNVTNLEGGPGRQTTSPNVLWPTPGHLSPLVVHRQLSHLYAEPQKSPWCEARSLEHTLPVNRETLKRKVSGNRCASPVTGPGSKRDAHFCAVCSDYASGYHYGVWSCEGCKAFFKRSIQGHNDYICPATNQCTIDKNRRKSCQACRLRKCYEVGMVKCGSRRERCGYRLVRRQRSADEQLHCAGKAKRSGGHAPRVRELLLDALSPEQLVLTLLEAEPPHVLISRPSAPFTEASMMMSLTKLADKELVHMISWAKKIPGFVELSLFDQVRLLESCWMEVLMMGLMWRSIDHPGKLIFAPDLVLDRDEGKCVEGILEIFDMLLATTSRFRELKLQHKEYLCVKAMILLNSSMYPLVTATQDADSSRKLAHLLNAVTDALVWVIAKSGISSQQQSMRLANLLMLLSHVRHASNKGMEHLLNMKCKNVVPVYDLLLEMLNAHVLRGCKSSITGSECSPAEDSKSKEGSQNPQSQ
Sequence of Tyrosine-protein kinase Fyn (P06241 whole entry): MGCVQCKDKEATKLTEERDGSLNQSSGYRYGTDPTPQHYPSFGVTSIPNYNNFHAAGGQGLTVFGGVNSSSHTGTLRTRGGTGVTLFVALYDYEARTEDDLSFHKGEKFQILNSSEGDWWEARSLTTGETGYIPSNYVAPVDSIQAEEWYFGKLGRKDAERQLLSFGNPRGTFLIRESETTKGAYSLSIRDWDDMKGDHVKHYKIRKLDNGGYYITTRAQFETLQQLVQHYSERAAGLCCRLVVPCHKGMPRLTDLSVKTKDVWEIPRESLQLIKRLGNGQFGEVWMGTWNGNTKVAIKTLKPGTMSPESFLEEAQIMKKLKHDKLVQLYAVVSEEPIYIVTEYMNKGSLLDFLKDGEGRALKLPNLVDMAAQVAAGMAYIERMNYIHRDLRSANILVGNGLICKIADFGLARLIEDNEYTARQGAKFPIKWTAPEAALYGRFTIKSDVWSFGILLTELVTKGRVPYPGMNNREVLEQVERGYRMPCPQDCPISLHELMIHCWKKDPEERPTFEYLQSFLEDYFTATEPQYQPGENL

Compound	IC50 [1]	IC50 [2]	IC50 [3]	IC50 [4]	IC50 [5]	IC50 [6]	Ki [6]	IC50 [7]	IC50 [8]	IC50 ([1]; read-out: IC50) [nM]	Ki [2]	Ki [3]	Ki [4]	Ki [5]	Ki [7]	Ki [8]
CC1(C)O[C@@H]2C[C@H]3[C@@H]4CCC5=CC(=O)CC[C@]5(C)[C@@]4(F)[C@@H](O)C[C@]3(C)[C@]2(C(=O)CCl)O1 [HALCINONIDE]	Not Active	Not Active	Not Active	Not Active	Not Active	Not Active	Not Active	Not Active	Not Active							
CC1CC(OC(=O)C(O)c2ccccc2)CC(C)(C)C1 (stereo not given) [CYCLANDELATE]	Not Active	Not Active	Not Active	Not Active	Not Active	Not Active	Not Active	Not Active	Not Active							
Sc1ncnc2nc[nH]c12 [MERCAPTOPURINE ANHYDROUS]	Not Active	Not Active	Not Active	Not Active	Not Active	Not Active	Not Active	Not Active	Not Active							
O=c1[nH]c(=O)n([C@H]2C[C@H](O)[C@@H](CO)O2)cc1I [IDOXURIDINE]	Not Active	Not Active	Not Active	Not Active	Not Active	Not Active	Not Active	Not Active	Not Active							
CC1=C2C(=CO[C@H](C)[C@H]2C)C(O)=C(C(=O)O)C1=O [CITRININ]	Not Active	Not Active	Not Active	Not Active	Not Active	Not Active	Not Active	Not Active	Not Active							
Cc1c(C)c2c(c(C)c1O)CC[C@@](C)(CCC[C@H](C)CCC[C@H](C)CCCC(C)C)O2 [ALPHA-TOCOPHEROL]	Not Active	Not Active	Not Active	Not Active	Not Active	Not Active	Not Active	Not Active	Not Active							
CC[C@@]1(O)C[C@H](O[C@H]2C[C@H](N(C)C)[C@H](O[C@H]3C[C@H](O)[C@H](O[C@H]4CCC(=O)[C@H](C)O4)[C@H](C)O3)[C@H](C)O2)c2c(cc3c(c2O)C(=O)c2c(O)cccc2C3=O)[C@H]1C(=O)OC [ACLARUBICIN]	Not Active	Not Active	Not Active	Not Active	Not Active	Not Active	Not Active	Not Active	Not Active							
CC(C)CN(C[C@@H](O)[C@H](Cc1ccccc1)NC(=O)O[C@H]1CCOC1)S(=O)(=O)c1ccc(N)cc1	Not Active	Not Active	Not Active	Not Active	Not Active	Not Active	Not Active	Not Active	Not Active							
LIPOPOLYSACCHARIDE E. COLI O55:B5		Not Active	Not Active	Not Active	Not Active	Not Active	Not Active	Not Active	Not Active	191	Not Active	Not Active	Not Active	Not Active	Not Active	Not Active
CCCCN1CCCC[C@H]1C(=O)Nc1c(C)cccc1C [LEVOBUPIVACAINE]	Not Active	Not Active	Not Active	Not Active	Not Active	Not Active	Not Active	Not Active	Not Active							
CC(C)C(=O)Nc1ccc([N+](=O)[O-])c(C(F)(F)F)c1 [FLUTAMIDE]	Not Active	Not Active	Not Active	Not Active	Not Active	Not Active	Not Active	Not Active	Not Active							
